The values that follow come from patent US10508088B2, “Methods using HDAC11 inhibitors” (FORMA Therapeutics, Inc., priority 2016, dated 2019).

By IC50 is commonly meant the midpoint of a concentration-inhibition curve.

In the assay the target is Recombinant N-terminal GST tag full-length human HDAC11 (Homo sapiens (Human), UniProt Q96DB2). The assay is described as follows: Probe binding HDAC11 assay, time resolved fluorescence (TRF). The conditions noted are these: read-out: HDAC11 IC50 Range. The protocol: The probe binding HDAC11 assay was performed using a time resolved fluorescence (TRF) assay format. Recombinant N-terminal GST tag full-length human HDAC11 was expressed and purified from baculovirus in Sf9 insect cells (SignalChem, # H93-30G-1000). Each assay was performed in 1536 black well microplates (Corning, #3936) in a final volume of 8 μL in assay buffer containing 50 mM HEPES (pH 7.5), 50 mM KCl, 50 mM NaCl, 0.5 mM GSH (L-Glutathione reduced, Sigma #G4251), 0.03% BGG (0.22 μM filtered, Sigma, #G7516-25G), and 0.01% Triton X-100 (Sigma, #T9284-10L). 100 nL of 10-point, 3-fold serial dilution in DMSO was pre-dispensed into respective wells of 1536 assay plates for a final test concentration range of 25 μM to 1.3 nM respectively. The final concentration in the assay of HDAC11 and probe (a fluorescein labeled HDAC 11 inhibitor) was 2.5 nM and 20 nM respectively. 4 μL of 2× probe and 2× anti-GST Terbium (Cisbio, #61GSTXLB) was added to assay plates followed by 4 μL of 2×HDAC11. Plates were incubated for 16 hours at room temperature before time resolved fluorescence was read on the Envision (Excitation at 340 nm, and Emission at 485 nm and 535 nm, Perkin Elmer).
Sequence of Recombinant N-terminal GST tag full-length human HDAC11 (Q96DB2 whole entry): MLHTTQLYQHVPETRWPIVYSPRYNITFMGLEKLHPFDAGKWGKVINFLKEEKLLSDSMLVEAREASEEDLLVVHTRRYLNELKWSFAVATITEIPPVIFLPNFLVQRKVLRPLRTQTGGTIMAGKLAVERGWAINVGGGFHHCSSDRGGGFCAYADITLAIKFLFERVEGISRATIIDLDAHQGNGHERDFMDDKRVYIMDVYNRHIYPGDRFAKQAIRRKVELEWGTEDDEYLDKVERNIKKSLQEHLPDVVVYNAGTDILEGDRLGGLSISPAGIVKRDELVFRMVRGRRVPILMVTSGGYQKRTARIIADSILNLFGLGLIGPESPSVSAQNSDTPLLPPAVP
Data from HDAC11 Assays were reported as percent inhibition (inh) compared with control wells based on the following equation: % inh=1−((FLU−AveLow)/(AveHigh−AveLow)) where FLU=measured time resolved fluorescence. AveLow=average time resolved fluorescence of no enzyme control (n=32). AveHigh=average time resolved fluorescence of DMSO control (n=32). IC50 values were determined by curve fitting of the standard 4 parameter logistic fitting algorithm included in the Activity Base software package: IDBS XE Designer Model205. Data is fitted using the Levenburg Marquardt algorithm.
In the case of `O=C(NO)c1cccc(Nc2nc3cc4c(cc3[nH]2)OCCCO4)c1` [Example 33-8, 3-((7,8-dihydro-1H,6H-[1,4]dioxepino[2′,3′:4,5]benzo[1,2-d]imidazol-2-yl)amino)-N-hydroxybenzamide], the IC50 was above 1000 nM.

With `Cn1c(Nc2cccc(C(=O)NO)c2)nc2cc(C(F)(F)F)c(C#N)cc21` [Example 11-1, 3-(6-cyano-1-methyl-5-(trifluoromethyl)-1H-benzo[d]imidazol-2-ylamino)-N-hydroxybenzamide], the IC50 is below 500 nM.

Turning to `O=C(NO)c1cccc(Nc2nc3cc([N+](=O)[O-])ccc3[nH]2)c1` [Example 33-21, N-hydroxy-3-((5-nitro-1H-benzo[d]imidazol-2-yl)amino)benzamide], the IC50 is 500 to 1000 nM.

On to `O=C(NO)c1cccc(Nc2nc3cc(-c4ccccc4)c(C(F)(F)F)cc3[nH]2)c1` [Example 36-1, N-hydroxy-3-((5-phenyl-6-(trifluoromethyl)-1H-benzo[d]imidazol-2-yl)amino)benzamide], for which the IC50 is below 500 nM.

Take `O=C(NO)c1cc(Nc2nc3cc(Cl)c(Cl)cc3o2)ccn1` [Example 4-6, 4-((5,6-dichlorobenzo[d]oxazol-2-yl)amino)-N-hydroxypicolinamide]: the IC50 is below 500 nM.

On to `CC(C)n1c(Nc2cccc(C(=O)NO)c2)nc2cc(C#N)c(C(F)(F)F)cc21` [Example 15-1, 3-(5-cyano-1-isopropyl-6-(trifluoromethyl)-1H-benzo[d]imidazol-2-ylamino)-N-hydroxybenzamide], for which the IC50 was below 500 nM.

Turning to `O=C(NO)c1cccc(Nc2nc3nccnc3[nH]2)c1` [Example 29-1, 3-((1H-imidazo[4,5-b]pyrazin-2-yl)amino)-N-hydroxybenzamide], the IC50 is above 1000 nM.

As for `NCCCCCn1c(Nc2cccc(C(=O)NO)c2)nc2cc(Cl)c(F)cc21` [Example 22-2, 3-((1-(5-aminopentyl)-5-chloro-6-fluoro-1H-benzo[d]imidazol-2-yl)amino)-N-hydroxybenzamide], the IC50 is below 500 nM.

Take `COCCn1c(Nc2cccc(C(=O)NO)c2)nc2ccccc21` [Example 23-1, N-hydroxy-3-((1-(2-methoxyethyl)-1H-benzo[d]imidazol-2-yl)amino)benzamide]: the IC50 was above 1000 nM.

Turning to `NS(=O)(=O)c1ccc2[nH]c(Nc3cccc(C(=O)NO)c3)nc2c1` [Example 33-24, N-hydroxy-3-((5-sulfamoyl-1H-benzo[d]imidazol-2-yl)amino)benzamide], the IC50 was above 1000 nM.

As to `O=C(NO)c1cccc(Nc2nc3cc4c(cc3[nH]2)OCO4)c1` [Example 33-4, 3-((5H-[1,3]dioxolo[4′,5′:4,5]benzo[1,2-d]imidazol-6-yl)amino)-N-hydroxybenzamide], the IC50 is above 1000 nM.

As to `O=C(NO)c1cccc(Nc2nc3cc(Br)c(OC(F)(F)F)cc3[nH]2)c1` [Example 33-7, 3-((5-bromo-6-(trifluoromethoxy)-1H-benzo[d]imidazol-2-yl)amino)-N-hydroxybenzamide], the IC50 was below 500 nM.

As to `Cn1ncc2ccc(-c3cc4[nH]c(Nc5cccc(C(=O)NO)c5)nc4cc3C(F)(F)F)cc21` [Example 36-17, N-hydroxy-3-((6-(1-methyl-1H-indazol-6-yl)-5-(trifluoromethyl)-1H-benzo[d]imidazol-2-yl)amino)benzamide], the IC50 was below 500 nM.

As to `N#Cc1cc2nc(Oc3cccc(C(=O)NO)c3)[nH]c2cc1C(F)(F)F` [Example 26-1, 3-((5-cyano-6-(trifluoromethyl)-1H-benzo[d]imidazol-2-yl)oxy)-N-hydroxybenzamide], the IC50 is above 1000 nM.

With `O=C1COc2cc3[nH]c(Nc4cccc(C(=O)NO)c4)nc3cc2N1` [Example 33-18, N-hydroxy-3-((7-oxo-3,6,7,8-tetrahydroimidazo[4′,5′:4,5]benzo[1,2-b][1,4]oxazin-2-yl)amino)benzamide], the IC50 was above 1000 nM.

As for `Cc1cc2[nH]c(Nc3cccc(C(=O)NO)c3)nc2cc1Br` [Example 33-12, 3-((5-bromo-6-methyl-1H-benzo[d]imidazol-2-yl)amino)-N-hydroxybenzamide], the concentration for half-maximal inhibition (IC50) was below 500 nM.

With `O=C(NO)c1cccc(Nc2nc3ncc(C(F)(F)F)cc3o2)c1` [Example 32-2, N-hydroxy-3-((6-(trifluoromethyl)oxazolo[4,5-b]pyridin-2-yl)amino)benzamide], the IC50 is below 500 nM.

For `COCc1ccc(-c2cc3[nH]c(Nc4cccc(C(=O)NO)c4)nc3cc2C(F)(F)F)cc1` [Example 36-7, N-hydroxy-3-((6-(4-(methoxymethyl)phenyl)-5-(trifluoromethyl)-1H-benzo[d]imidazol-2-yl)amino)benzamide], the IC50 is below 500 nM.

Regarding `O=C(NO)c1cccc(Nc2nc3cc(Br)c(C(F)(F)F)cc3[nH]2)c1` [Example 33-11, 3-((5-bromo-6-(trifluoromethyl)-1H-benzo[d]imidazol-2-yl)amino)-N-hydroxybenzamide], the IC50 was below 500 nM.

Consider `CSc1ccc(-c2cc3[nH]c(Nc4cccc(C(=O)NO)c4)nc3cc2C(F)(F)F)cc1` [Example 36-5, N-hydroxy-3-((6-(4-(methylthio)phenyl)-5-(trifluoromethyl)-1H-benzo[d]imidazol-2-yl)amino)benzamide], for which the IC50 was below 500 nM.

As to `O=C(NO)c1cccc(Nc2nc3cc(-c4ccncc4)c(C(F)(F)F)cc3[nH]2)c1` [Example 36-3, N-hydroxy-3-((5-(pyridin-4-yl)-6-(trifluoromethyl)-1H-benzo[d]imidazol-2-yl)amino)benzamide], the IC50 is below 500 nM.

`O=C(NO)c1cncc(Nc2nc3cc(Cl)c(Cl)cc3o2)c1` [Example 4-5, 5-((5,6-dichlorobenzo[d]oxazol-2-yl)amino)-N-hydroxynicotinamide]: the IC50 was below 500 nM.

On to `O=C(NO)c1cccc(Nc2nc3cc(C(F)(F)F)c(-c4cnc(N5CCOCC5)nc4)cc3[nH]2)c1` [Example 36-13, N-hydroxy-3-((6-(2-morpholinopyrimidin-5-yl)-5-(trifluoromethyl)-1H-benzo[d]imidazol-2-yl)amino)benzamide], for which the IC50 is below 500 nM.

Turning to `O=C(NO)c1cccc(Nc2nc3cc(Cl)c(Cl)cc3o2)c1F` [Example 4-2, 3-((5,6-dichlorobenzo[d]oxazol-2-yl)amino)-2-fluoro-N-hydroxybenzamide], the IC50 is below 500 nM.

Turning to `O=C(NO)c1cccc(Nc2cc3cc(Cl)c(Cl)cc3[nH]2)c1` [Example 28-1, 3-((5,6-dichloro-1H-indol-2-yl)amino)-N-hydroxybenzamide], the IC50 is below 500 nM.

Consider `O=C(NO)c1cccc(Nc2nc3ccccc3[nH]2)c1` [Example 8-1, 3-(1H-benzo[d]imidazol-2-ylamino)-N-hydroxybenzamide], for which the IC50 was above 1000 nM.

Consider `O=C(NO)c1cccc(Nc2nc3cc(F)c(F)cc3[nH]2)c1` [Example 33-3, 3-((5,6-difluoro-1H-benzo[d]imidazol-2-yl)amino)-N-hydroxybenzamide], for which the IC50 was in the range of 500 to 1000 nM.

For the compound `O=C(NO)c1ccc(F)c(Nc2nc3cc(Cl)c(Cl)cc3o2)c1` [Example 4-3, 3-((5,6-dichlorobenzo[d]oxazol-2-yl)amino)-4-fluoro-N-hydroxybenzamide], the IC50 was below 500 nM.

Turning to `O=C(NO)c1cccc(Nc2nc3cc(C(F)(F)F)c(-c4cccc(O)c4)cc3[nH]2)c1` [Example 36-10, N-hydroxy-3-((6-(3-hydroxyphenyl)-5-(trifluoromethyl)-1H-benzo[d]imidazol-2-yl)amino)benzamide], the IC50 was below 500 nM.

For `Cn1c(Nc2cccc(C(=O)NO)c2)nc2cc(C#N)c(C(F)(F)F)cc21` [Example 10-1, 3-(5-cyano-1-methyl-6-(trifluoromethyl)-1H-benzo[d]imidazol-2-ylamino)-N-hydroxybenzamide], the IC50 was below 500 nM.

For `CN(c1cccc(C(=O)NOC(=O)NCc2ccccc2)c1)c1nc2cc(C#N)c(C(F)(F)F)cc2[nH]1` [Example 37-2, N-((benzylcarbamoyl)oxy)-3-((5-cyano-6-(trifluoromethyl)-1H-benzo[d]imidazol-2-yl)(methyl)amino)benzamide], the IC50 was above 1000 nM.

Turning to `COCCn1c(Nc2cccc(C(=O)NO)c2)nc2cc(-c3ccccc3)c(C(F)(F)F)cc21` [Example 20-2, N-hydroxy-3-((1-(2-methoxyethyl)-5-phenyl-6-(trifluoromethyl)-1H-benzo[d]imidazol-2-yl)amino)benzamide], the IC50 was below 500 nM.

With `COCCn1c(Nc2cccc(C(=O)NO)c2)nc2cc(C(F)(F)F)c(C#N)cc21` [Example 18-1, 3-(6-cyano-1-(2-methoxyethyl)-5-(trifluoromethyl)-1H-benzo[d]imidazol-2-ylamino)-N-hydroxybenzamide], the IC50 is below 500 nM.

Take `Cn1c(Nc2cccc(C(=O)NO)c2)nc2cc(F)c(C#N)cc21` [Example 12-1, 3-(6-cyano-5-fluoro-1-methyl-1H-benzo[d]imidazol-2-ylamino)-N-hydroxybenzamide]: the IC50 was below 500 nM.
